From article PMC8984819, “Acetylene containing 2-(2-hydrazinyl)thiazole derivatives: design, synthesis, and in vitro and in silico evaluation of antimycobacterial activity against Mycobacterium tuberculosis” (RSC Advances, 2022)
≈ marks a conversion by molar mass, not a printed value. Read-outs that look alike come from different tables or passages of the source.

Tests used:
[1] = test system: H37Rv strain of Mycobacterium tuberculosis; assay: microbe, parasite or virus in culture; assay type: cell-based; settings: for inhibition at 50 µg/mL / inhibition at 100 µg/mL / inhibition at 2 µg/mL: H37RV; for inhibition at 50 µg/mL / inhibition at 100 µg/mL / % Inhibition ± SD: LRP assay; for inhibition at 50 µg/mL / inhibition at 100 µg/mL: read-out: % Inhibition ± SD
in vitro = assay type: cell-based; settings: human
Procedure: HEK293 cells were grown in DMEM media containing 10% FBS and L-glutamine–penicillin–streptomycin solution at 37 °C in 5% CO2 condition. To perform MTT assay, 96 well tissue culture plate was seeded with […] number of cells. After 16 hours of seeding, cells were successfully attached to the culture plate and were treated with the active chemical compounds dissolved in DMSO at different concentrations as follows: 25 μg ml^−1, 50 μg ml^−1, 75 μg ml^−1 and 100 μg ml^−1. The cells were also treated with the DMSO to exclude the solvent-induced toxicity and used as an internal control. After 48 hours post active chemical compounds treatment, the MTT assay was performed as described previously.[45] MG-132, a potent proteasomal inhibitor and an inducer of apoptosis[46,47] was used as a positive control in the assay. Wells with media lacking any cells were as used as a negative control in the assay.
Tetrazolium-based […] cytotoxicity (MTT) assay is an important method to evaluate the viability of cells and it was performed for all the active chemical compounds using HEK293. To illustrate the percentage cell viability, the HEK293 cells were incubated with different concentrations of all active chemical compounds for 48 h. The compounds showing the viability of less than 50% of the cells were considered cytotoxic compounds. We observed that maximum compounds (such as 7, 9, 10, 13 and 25) show more than 75% of the cell viability at the highest concentration i.e. 100 μg ml^−1 for 48 hours of the treatment. Similarly, other compounds (such as 5, 6, 22, 26 and 31) show 70% cell viability upon 48 hours of the treatment. […] MG-132, a potent proteasomal inhibitor and an inducer of apoptosis was used as a positive control in the assay.

[2] = Mycobacterium tuberculosis, 50 µg/ml, M. Tb H37Rv
[3] = Mycobacterium tuberculosis, 100 µg/ml, M. Tb H37Rv

| Structure (SMILES) | inhibition at 50 µg/mL [1, 2] [%] | melting point [°C] | inhibition at 100 µg/mL [1, 3] [%] | other results |
| --- | --- | --- | --- | --- |
| C#CCOc1ccccc1C=O [Compound 1] | 39.3 ± 1.17 |  |  |  |
| C#CCOc1ccc(C=O)cc1OCC [Compound 2] | 7.73 ± 0.23 | 74 to 75 | 8.08 ± 0.24 |  |
| C#CCOc1ccc(Br)cc1C=O [Compound 3] | 48.7 ± 1.46 | 92 to 93 | 50.9 ± 1.52 |  |
| C#CCOc1ccccc1/C=N/NC(N)=S [Compound 4] | 46.8 ± 1.4 | 174 to 176 |  | antitubercular activity against M. Tb (active = 50% RLU reduction and above) ([1]; concentration not given): inactive |
| C#CCOc1ccc(Br)cc1/C=N/NC(N)=S [Compound 6] | 51.2 ± 1.53 | 204 to 206 | 56.9 ± 1.7 | viability at 48 h, 100 μg ml^−1 (in vitro): 70% |
| C#CCOc1ccccc1/C=N/Nc1nc(-c2ccccc2)cs1 [Compound 7] | 51.7 ± 1.54 | 183 to 185 |  | viability at 48 h, 100 μg ml^−1 (in vitro): > 75% |
| C#CCOc1ccccc1/C=N/Nc1nc(-c2ccc(F)cc2)cs1 [Compound 8] | 38 ± 1.14 | 180 to 182 |  |  |
| C#CCOc1ccccc1/C=N/Nc1nc(-c2ccc(Cl)cc2)cs1 [Compound 9] | 50.8 ± 1.52 | 160 to 164 |  | viability at 48 h, 100 μg ml^−1 (in vitro): > 75% |
| C#CCOc1ccccc1/C=N/Nc1nc(-c2ccc(Cl)c(Cl)c2)cs1 [Compound 10] | 52 ± 1.56 |  |  | viability at 48 h, 100 μg ml^−1 (in vitro): > 75% |
| C#CCOc1ccccc1/C=N/Nc1nc(-c2ccc(Br)cc2)cs1 [Compound 11] | 49.1 ± 1.47 | 144 to 146 |  |  |
| C#CCOc1ccccc1/C=N/Nc1nc(-c2ccc([N+](=O)[O-])cc2)cs1 [Compound 12] | 29.1 ± 0.87 | 185 to 187 |  |  |
| C#CCOc1ccccc1/C=N/Nc1nc(-c2ccc(C#N)cc2)cs1 [Compound 13] | 54.3 ± 1.62 | 150 to 152 |  | viability at 48 h, 100 μg ml^−1 (in vitro): > 75% |
| C#CCOc1ccccc1/C=N/Nc1nc(-c2ccc(C)cc2)cs1 [Compound 14] | 38.2 ± 1.14 |  |  |  |
| C#CCOc1ccccc1/C=N/Nc1nc(-c2ccc(OC)cc2)cs1 [Compound 15] | 10.3 ± 0.3 | 181 to 183 |  |  |
| C#CCOc1ccc(/C=N/Nc2nc(-c3ccccc3)cs2)cc1OCC [Compound 16] | 40.5 ± 1.21 |  | 48.7 ± 1.46 |  |
| C#CCOc1ccc(/C=N/Nc2nc(-c3ccc(F)cc3)cs2)cc1OCC [Compound 17] | 2.06 ± 0.06 | 152 to 154 | 11.4 ± 0.34 |  |
| C#CCOc1ccc(/C=N/Nc2nc(-c3ccc(Cl)cc3)cs2)cc1OCC [Compound 18] | 6.36 ± 0.19 |  | 17.8 ± 0.53 |  |

| Structure (SMILES) | inhibition at 50 µg/mL [1, 2] [%] | melting point [°C] | inhibition at 100 µg/mL [1, 3] [%] | other results |
| --- | --- | --- | --- | --- |
| C#CCOc1ccc(/C=N/Nc2nc(-c3ccc(Cl)c(Cl)c3)cs2)cc1OCC [Compound 19] | 2.38 ± 0.07 | 153 to 155 | 7.21 ± 0.21 |  |
| C#CCOc1ccc(/C=N/Nc2nc(-c3ccc(Br)cc3)cs2)cc1OCC [Compound 20] | 7.35 ± 0.22 |  | 12.1 ± 0.36 |  |
| C#CCOc1ccc(/C=N/Nc2nc(-c3ccc([N+](=O)[O-])cc3)cs2)cc1OCC [Compound 21] | 48.7 ± 1.46 | 191 to 193 | 50.9 ± 1.52 |  |
| C#CCOc1ccc(/C=N/Nc2nc(-c3ccc(C#N)cc3)cs2)cc1OCC [Compound 22] | 50.9 ± 1.52 |  | 57.2 ± 1.71 | viability at 48 h, 100 μg ml^−1 (in vitro): 70% |
| C#CCOc1ccc(/C=N/Nc2nc(-c3ccc(C)cc3)cs2)cc1OCC [Compound 23] | 8.72 ± 0.26 | 166 to 168 | 10.5 ± 0.31 |  |
| C#CCOc1ccc(/C=N/Nc2nc(-c3ccc(OC)cc3)cs2)cc1OCC [Compound 24] | 5.64 ± 0.16 | 183 to 185 | 33 ± 0.98 |  |
| C#CCOc1ccc(Br)cc1/C=N/Nc1nc(-c2ccccc2)cs1 [Compound 25] | 61 | 195 to 197 | 66.2 ± 1.98 | viability at 48 h, 100 μg ml^−1 (in vitro): > 75%; % Inhibition ± SD ([1]; 50 µg/ml, M. Tb H37Rv): 61.86 ± 1.85%; MIC ([1]; Mycobacterium tuberculosis, concentration giving 50% inhibition of M. Tb H37Rv): 50 µg/mL (≈ 121 µM) |
| C#CCOc1ccc(Br)cc1/C=N/Nc1nc(-c2ccc(F)cc2)cs1 [Compound 26] | 50.7 ± 1.52 | 207 to 209 | 57.7 ± 1.73 | viability at 48 h, 100 μg ml^−1 (in vitro): 70% |
| C#CCOc1ccc(Br)cc1/C=N/Nc1nc(-c2ccc(Cl)cc2)cs1 [Compound 27] | 38.1 ± 1.14 | 209 to 211 | 52.7 ± 1.58 | % Inhibition ± SD ([1]; 100 µg/ml, M. Tb H37Rv): 50% |
| C#CCOc1ccc(Br)cc1/C=N/Nc1nc(-c2ccc(Cl)c(Cl)c2)cs1 [Compound 28] | 43.8 ± 1.31 | 213 to 215 | 50.2 ± 1.5 | % Inhibition ± SD ([1]; 100 µg/ml, M. Tb H37Rv): 50% |
| C#CCOc1ccc(Br)cc1/C=N/Nc1nc(-c2ccc(Br)cc2)cs1 [Compound 29] | 27.1 ± 0.81 | 208 to 210 | 37.2 ± 1.11 |  |
| C#CCOc1ccc(Br)cc1/C=N/Nc1nc(-c2ccc(C#N)cc2)cs1 [Compound 30] | 43.7 ± 1.31 | 199 to 201 | 48.7 ± 1.46 |  |
| C#CCOc1ccc(Br)cc1/C=N/Nc1nc(-c2ccc(C)cc2)cs1 [Compound 31] | 54.9 ± 1.64 | 191 to 193 | 56.3 ± 1.68 | viability at 48 h, 100 μg ml^−1 (in vitro): 70%; % Inhibition ± SD ([1]; 50 µg/ml, M. Tb H37Rv): 54% |
| C#CCOc1ccc(Br)cc1/C=N/Nc1nc(-c2ccc(OC)cc2)cs1 [Compound 32] | 43.7 ± 1.31 | 184 to 187 | 48.7 ± 1.46 |  |
| NNC(=O)c1ccncc1 [INH, isoniazid, reference compound] |  |  |  | inhibition at 2 µg/mL ([1]; Mycobacterium tuberculosis, at 2 µg/ml, reference drugs, M. Tb H37Rv, read-out: % Inhibition): > 99% |
| CO[C@H]1/C=C/O[C@@]2(C)Oc3c(C)c(O)c4c(O)c(c(/C=N/N5CCN(C)CC5)c(O)c4c3C2=O)NC(=O)/C(C)=C\C=C\[C@H](C)[C@H](O)[C@@H](C)[C@@H](O)[C@@H](C)[C@H](OC(C)=O)[C@@H]1C [RIF, rifampicin, reference compound] |  |  |  | inhibition at 2 µg/mL ([1]; Mycobacterium tuberculosis): > 99% |
